The values below come from patent US10463754B2, “Process for decontaminating or sterilizing an article” (priority 2014, dated 2019).

SMILES strings stand for the structures. Where two headings read alike, the source gives them in different places.

For this test, the system named is spores of Bacillus subtilis. In kind it is cell-based. On the procedure: The efficacy of the inventive process is assessed using a time kill suspension test method and spores of Bacillus subtilis.
Peracetic acid (PAA) and hydrogen peroxide (H2O2) are prepared as concentrated stocks (3× concentrate). Each test contains 100 μl of the PAA concentrate and 100 μl of the H2O2 concentrate. Controls containing only PAA or H2O2 are also prepared. These contain 100 μl of either the PAA concentrate or H2O2 concentrate and 100 μl of de-ionized water. To each test, 100 μl of spores are added while starting the timer concurrently. The samples are mixed thoroughly. The temperature of the samples is room temperature. At the appropriate contact times, 10 μl of the appropriate test sample are placed into 90 μl of the appropriate neutralizing solution, mixed thoroughly and incubated for at least 10 minutes. Ten fold serial dilutions are prepared through 10^−6 and plated using the drop counting method. The plates are then incubated aerobically at 37° C. for 1-2 days. Following incubation, colony forming units (CFU) are counted using standard plate count techniques and converted to log 10 values for analysis.

Consider `OO` [H2O2, hydrogen peroxide], for which the “Time (min) to achieve 4 log reduction” value (H2O2 0.10% by weight, PAA 0.00% (H2O2 alone), extrapolated from experimental data) is recorded as 2305.13 min; the “Time (min) to achieve 4 log reduction” value (H2O2 0.20% by weight, PAA 0.00% (H2O2 alone), extrapolated from experimental data) is given as 1213.99 min; the “Time (min) to achieve 4 log reduction” value (H2O2 0.40% by weight, PAA 0.00% (H2O2 alone), extrapolated from experimental data) was 639.34 min; the “Time (min) to achieve 4 log reduction” value (H2O2 0.80% by weight, PAA 0.00% (H2O2 alone)) is recorded as 343.04 min; the “Time (min) to achieve 4 log reduction” value (H2O2 1.60% by weight, PAA 0.00% (H2O2 alone)) came out at 168.96 min; the “Time (min) to achieve 4 log reduction” value (H2O2 3.20% by weight, PAA 0.00% (H2O2 alone)) is listed as 97.28 min. Further, the “Time (min) to achieve 4 log reduction” value (H2O2 6.40% by weight, PAA 0.00% (H2O2 alone), room temperature) worked out at 48.64 min.
Take `CC(=O)OO` [PAA, Peracetic acid]: the “Time (min) to achieve 4 log reduction” value is 711625 min (PAA 0.005% by weight, H2O2 0.00% (PAA alone), extrapolated from data for PAA 0.08, 0.16 and 0.32%); 67744.68 min (PAA 0.01% by weight, H2O2 0.00% (PAA alone), extrapolated from data for PAA 0.08, 0.16 and 0.32%); 6449.101 min (PAA 0.02% by weight, H2O2 0.00% (PAA alone), extrapolated from data for PAA 0.08, 0.16 and 0.32%); 613.9362 min (PAA 0.04% by weight, H2O2 0.00% (PAA alone), extrapolated from data for PAA 0.08, 0.16 and 0.32%); 70.40 min (PAA 0.08% by weight, H2O2 0.00% (PAA alone)); 4.64 min (PAA 0.16% by weight, H2O2 0.00% (PAA alone)).
